# Counter-ions that a name gives are not always drawn.
# Assays:
# [1] = system: polyclonal antibodies (antiserum raised to Immunogen II), detecting agent Hapten 1-HRP; assay: Biochip competitive immunoassay (antibody characterisation, cross-reactivity); format: binding, sheep; settings: for % Cross-reactivity: CR based on 100% for 1-benzylpiperazine, detecting agent derived from Hapten-1, % CR = IC50 1-benzylpiperazine/IC50 CR x 100; for IC50: detecting agent derived from Hapten-1, competitive assay format
# Description: Pre-immunisation blood samples were collected from 16-month-old female Suffolk sheep. The immunisation mixture was prepared by adding 2 mg of immunogen prepared in PBS at a ratio of 50% lmmunogen/PBS with 50% Freund's Complete adjuvant (Sigma, Product Number—F5881) and emulsifying the mixture to prepare the final product for immunisation. On Day 0, each sheep was immunized intramuscularly with 1 ml of the mixture described above, with 2-[4-(piperazin-1-yl-methyl)phenoxy]acetic acid conjugated to a carrier protein bovine thyroglobulin (BTG) (as in example 6 above). Subsequent boosts (a total of 20 boosts) were administered intramuscularly to each sheep every 30 days. Freund's complete adjuvant (Sigma, Product Number—F5881) was used for primary immunizations and Freund's incomplete adjuvant (Sigma product Number—F5506) was used for all subsequent injections. Routine bleeds were taken between boosts to monitor the antibody titre and sensitivity, using hapten 1 conjugated to Horseradish peroxidase in a competitive ELISA, testing cross reactivity to 1-Benzylpiperazine and 4-OH benzylpiperazine.
# Once the antibody titres were assessed as meeting the required performance criteria i.e. there was no significant increase in antibody titre and a plateau had been reached in the % displacement profile, antibodies were then evaluated by competitive immunoassay. They were first immobilized on a biochip platform (9 mm×9 mm) (Randox Laboratories Ltd.), which was the vessel for the immunoreactions. The semi-automated bench top analyser Evidence Investigator was used (EV3602, Randox Laboratories Ltd., Crumlin, UK, patents-EP98307706, EP98307732, EP0902394, EP1227311, EP1434995 and EP1354623). The assay principle was based on competition for binding sites of the polyclonal antibodies between free antigen (1-Benzylpiperazine and other cross-reactants) and labelled conjugate (Hapten 1-HRP, prepared as in example 6). Assay dilutent (155 μl), calibrator/1-benzylpiperazine or potential cross-reactant (25 μl) followed by Hapten 1-HRP conjugate (120 μl) were added to the appropriate biochip. The biochips were then incubated for 30 minutes at 30° C. on a thermo-shaker set at 370 rpm. The biochips were then subjected to 2 quick wash cycles using the wash buffer provided, followed by 4×2 minute wash cycles. 250 μl of signal (1:1 luminol+peroxide, v/v) was then added to each biochip, and after 2 minutes the biochip carrier was imaged in the Evidence Investigator analyser. The system incorporates dedicated software to automatically process, report and archive the data generated (details can be found in FitzGerald, S. P. et al, Clin. Chem. 51(7); 1165-1176; 2005).
# Calibration curves were generated using the Biochip based immunoassay as described above. The IC50 was calculated from the graphs by taking 50% of the signal from the zero calibrator and reading the corresponding value on the x-axis, equivalent to the concentration of unlabelled ligand which reduces specific binding of labelled ligand by 50%. Specificity was also tested against a range of related analytes (Table 1). Cross-reactivity was calculated according to the following formula: % CR=IC50, 1-benzylpiperazine/IC50, CR×100 where % CR is the percentage cross-reactivity, IC50, 1-benzylpiperazine is the concentration of 1-benzylpiperazine that causes 50% displacement of signal and IC50, CR is the concentration of 1-benzylpiperazine/metabolites/structurally-related molecules that causes 50% displacement of signal.
# MDMA immunoassay = settings: commercial MDMA immunoassay; cited from earlier work
# [2] = Wistar rats, cited from earlier work; for % of the dose excreted as this molecule: BZP dosed; for detectability in urine post-dosing / time of peak urinary level post-dosing: urine
# [3] = cited from earlier work
Structure (SMILES),% Cross-reactivity [1] [%],IC50 [1] [µg/mL],other results
"COc1ccccc1N1CCNCC1 [1-(2-Methoxyphenyl)piperazine diHCl, 1-(2-Methoxyphenyl)piperazine]",3.2,0.0438,–
Oc1cccc(N2CCNCC2)c1 [1-(3-Hydroxyphenyl)piperazine],1.0,0.14,–
Cc1cccc(N2CCNCC2)c1 [1-(3-Methylphenyl)piperazine],3.9,0.0359,–
FC(F)(F)c1cccc(N2CCNCC2)c1 [1-(3-Trifluoromethylphenyl)piperazine],1.9,0.0737,–
Cc1ccc(N2CCNCC2)cc1 [1-(4-Methylphenyl)piperazine],1.3,0.1077,–
"c1ccc(CN2CCNCC2)cc1 [1-Benzylpiperazine, 1-benzylpiperazine]",100.0,0.0014,"concentration needed for a positive result (MDMA immunoassay): 3,000,000 ng/mL; % of the dose excreted as this molecule [2]: 6.7%; detectability in urine post-dosing [2]: undetectable at 48hrs; time of peak urinary level post-dosing [2]: around 4 hrs; elimination half life ([3]; in vivo): 5 to 6 h; time at which elimination is complete ([3]; in vivo): around 44 hrs; time to detection in plasma ([3]; oral dose of BZP hydrochloride): ≤ 30 min"
c1ccc(N2CCNCC2)cc1 [1-Phenylpiperazine],3.4,0.0412,–
c1cc2c(cc1CN1CCNCC1)OCO2 [1-Piperonylpiperazine],101.5,0.0014,–
"Oc1cccc(CN2CCNCC2)c1 [3-(Piperazin-1ylmethyl)phenol diHCl, 3-(Piperazin-1ylmethyl)phenol]",123.7,0.0011,% of the dose excreted as this molecule [2]: 2%; detectability in urine post-dosing [2]: detectable up to 48hrs; time of peak urinary level post-dosing [2]: around 8 hrs
"Oc1ccc(CN2CCNCC2)cc1 [4-OH Benzylpiperazine, 4-OH benzylpiperazine]",172.1,0.0008,% of the dose excreted as this molecule [2]: 25%; detectability in urine post-dosing [2]: detectable up to 48hrs; time of peak urinary level post-dosing [2]: around 8 hrs
"Cc1cccc(CN2CCNCC2)c1 [N-(3-Methylbenzyl)piperazine diHCl, N-(3-Methylbenzyl)piperazine]",52.9,0.0026,–
"Clc1cccc(N2CCNCC2)c1 [mCPP HCl, 1-(3-chlorophenyl)piperazine]",0.6,0.2333,–

# — patent publication US9587035B2, “Assay for benzylpiperazine and metabolites” (Randox Laboratories Limited, priority 2012, dated 2017)
